{"source": "patent US20110230659A1", "about": "“CYCLOBUTYL PURINE DERIVATIVE, ANGIOGENESIS PROMOTING AGENT, LUMEN FORMATION PROMOTING AGENT, NEUROCYTE GROWTH PROMOTING AGENT, AND DRUG” (NATIONAL UNIVERSITY CORPORATION KAGAWA UNIVERSITY, priority 2008, published 2011)", "key": {"[1]": {"tested_on": "Human umbilical vein endothelial cells (HUVEC)", "test": "Measurement of cell migration (CytoSelect 24-well Cell Migration Assay)", "assay_type": "cell-based", "protocol": "Measurement of cell migration was carried out in the following manner using CytoSelect 24-well Cell Migration Assay (CBA-100, Cell Biolabs) kits. First, sample solutions were prepared by dissolving 2-Cl—C.OXT-A in physiological saline so as to achieve predetermined concentrations (0.1, 0.5, 1 mmol/l). Then, the sample solutions containing 2-Cl—C.OXT-A at the predetermined concentrations respectively were added to HuMedia-EB2 media (Kurabo) to which 2 v/v % inactivated fetal bovine serum (FBS) had been added so that their concentrations became 10 v/v %. Thus, cell migration media were prepared. The final concentrations of 2-Cl—C.OXT-A in the cell migration media were 10, 50, and 100 μmol/l.\nHuman umbilical vein endothelial cells (HUVEC) were suspended in a HuMedia-EB2 medium (Kurabo) to which 2 v/v % inactivated fetal bovine serum (FBS) had been added at a density of 0.5×10^6 cells/ml. Thus, a cell suspension was prepared. 300 μl of the cell suspension was added to an upper compartment (i.e., in an insert) of a polycarbonate membrane plate provided in the kit, and 500 μl of the cell migration medium was added to a lower compartment (i.e., in a well) of the plate. Then, the cells were cultured at 37° C. for 24 hours. After the completion of the culture, the membrane on the inner bottom face of the insert was wiped out with a cotton swab to remove the cells on the membrane. Then, cells having migrated to the rear face of the membrane (the membrane on the outer bottom face of the insert) were stained using a staining solution provided in the kit, and then photographed from below the insert. After the photographing, the dye was extracted with an extracting solution provided in the kit, and the absorbance at 560 nm was measured using a microplate reader. As a control, a HuMedia-EB2 medium (Kurabo) to which 2 v/v % inactivated fetal bovine serum (FBS) had been added was used instead of the cell migration medium to carry out the culture, and the cells were stained and the absorbance was measured in the same manner as in the above. Then, using the above equation (I), the relative absorbance in the culture using each of the cell migration media containing 2-Cl—C.OXT-A at the predetermined concentrations was calculated."}, "[2]": {"tested_on": "Human umbilical vein endothelial cells (HUVEC)", "test": "Measurement of cell proliferation (Cell Counting Kit-8)", "assay_type": "cell-based", "settings": "HUVEC, 48 hours", "protocol": "Sample solutions were prepared by dissolving 2-Cl—C.OXT-A in physiological saline so as to achieve predetermined concentrations (0.5, 1, 5, 10, 50, 100 mmol/l). Then, the sample solutions containing 2-Cl—C.OXT-A at the predetermined concentrations respectively were added to HuMedia-EB2 media (Kurabo) to which 2 v/v % inactivated fetal bovine serum (FBS) had been added so that their concentrations became 10 v/v %. Thus, cell proliferation media were prepared. The final concentrations of 2-Cl—C.OXT-A in the cell proliferation media were 50, 100, 500 μmol/l, 1, 5, and 10 mmol/1.\nHuman umbilical vein endothelial cells (HUVEC) suspended in a HuMedia-EG2 medium (Kurabo) were inoculated into each of gelatin-coated wells of a 96-well plate at a density of 3×10^3 cells per well, and cultured for 24 hours. 24 hours after the start of the culture, the medium was removed, and 100 μl of the cell proliferation medium was added to each well. The cells were cultured for another 48 hours. After the completion of the culture, a color reaction was caused using a Cell Counting Kit-8 (Dojindo Laboratories). 2 hours after the start of the reaction, the absorbance at 450 nm was measured using a microplate reader. As a control, a HuMedia-EB2 medium (Kurabo) to which 2 v/v % inactivated fetal bovine serum (FBS) had been added was used instead of the cell proliferation medium to carry out the culture, and a color reaction was caused and the absorbance was measured in the same manner as in the above. Then, using the following equation (I), the relative absorbance in the culture using each of the cell proliferation media containing 2-Cl—C.OXT-A at the predetermined concentrations was calculated."}, "MEK": {"tested_on": "MEK", "test": "MEK phosphorylation immunoblot in HUVEC", "assay_type": "cell-based, human", "settings": "100 μmol/l; 15 minutes after the addition", "protocol": "First, to a HuMedia-EB2 medium (Kurabo) to which 2 v/v % inactivated fetal bovine serum (FBS) had been added, 2-Cl—C.OXT-A was added so that its concentration became 100 μmol/l. Thus, a medium was prepared. Using the medium, human umbilical vein endothelial cells (HUVEC) were cultured for predetermined periods (0, 10, 20, 30, 45, and 60 minutes).\nAfter the culture, cells were collected. The collected cells were lysed by adding a cell lysis buffer (SDS-lysis buffer) thereto, and heat-denatured at 95° C. for 5 minutes. […]\nThe enzymes were visualized with SuperSignal (registered trademark) West Pico Chemiluminescent Substrate (Pierce), and detected by being exposed to RX—U X-ray film (FUJIFILM Corporation). From the detected bands, the respective phosphoenzymes and total enzymes were quantified using an NIH image software. Furthermore, the relative value (−fold) of each phosphoenzyme was calculated by substituting the measured value of the phosphoenzyme into the following equation (III). […]\nIn the present example, the effect of 2-Cl—C.OXT-A used in Example 1 on the phosphorylation of MEK was examined. MEK is a protein kinase involved in the angiogenesis signal transduction pathway and located upstream of ERK measured in Example 3, and acts to promote angiogenesis. […]"}}}
{"smiles": "Nc1nc(Cl)nc2c1ncn2C1CC(CO)C1CO", "note": "(stereo not drawn) [2-Cl—C.OXT-A, 6-amino-2-chloro-9-[trans-trans-2,3-bis(hydroxymethyl)cyclobutyl]purine]", "values": [{"measurement": "stained area (cell migration photographs)", "setting": "[1]; final concentration 10 μmol/l to 100 μmol/l, 24 hours, versus control", "result": "larger than that in the control"}, {"measurement": "relative absorbance (cell migration)", "setting": "[1]; final concentration 50 μmol/l", "result": 2.1}, {"measurement": "cell migration promoting-activity compared with VEGF", "setting": "[1]; final concentration 50 μmol/l, VEGF 10 ng/ml", "result": "higher than that in Comparative Example 7"}, {"measurement": "relative absorbance (cell migration)", "setting": "[1]; final concentration 10 to 100 μmol/l, versus control", "result": "higher than that of the control"}, {"measurement": "migration promoting-activity compared with physiological saline", "setting": "[1]; final concentrations 50 and 100 μmol/l, p<0.02", "result": "significantly higher than that in Comparative Example 8"}, {"measurement": "relative absorbance (cell proliferation)", "setting": "[2]; final concentration 50 μmol/l to 1 mmol/l, relative to control", "result": "higher than 1"}, {"measurement": "cell proliferation", "setting": "[2]; final concentration 5 mmol/l or higher", "result": "suppressed in a concentration-dependent manner"}, {"measurement": "relative value (−fold) of pMEK", "setting": "MEK", "result": "about 3.5 fold"}]}
